Reference: US9428507B2, “Compounds for the treatment of malaria” (The Broad Institute, Inc., priority 2013, dated 2016)

tested on: Dd2 strain of P. falciparum; test: Activity against the Dd2 strain of P. falciparum (SYBR Green I, 72-h incubation); assay type: cell-based; conditions: Plasmodium falciparum, DD2, 72 h, read-out: EC^50 Dd2
Protocol: The Dd2 strain of P. falciparum was cultured in complete medium (RPMI with L-glutamine, 4.3% heat-inactivated O-positive human serum, 2.08 mg/ml albumax, 0.013 mg/ml hypoxanthine, 1.17 mg/ml glucose, 0.18% NaHCO3, 0.031 M Hepes, 2.60 mM NaOH, and 0.043 mg/ml gentamicin) until the parasitemia reached 3-8%. Parasitemia was determined by checking at least 500 red blood cells from a Giemsa-stained blood smear. The Dd2 cultures along with tested O-positive red blood cells are centrifuged at room temperature at 2,000 rpm for 5 min using an Eppendorf centrifuge 581 OR with an A-4-81 rotor. The medium was aspirated off. For the compound screening, a parasite dilution at a 1% parasitemia and 1.0% hematocrit was created with screening medium (RPMI with L-glutamine, 4.16 mg/ml albumax II, 0.013 mg/ml hypoxanthine, 1.73 mg/ml glucose, 0.18% NaHCO3, 0.031M Hepes, 2.60 mM NaOH, and 0.043 mg/ml gentamicin). The suspension was gassed with 93% nitrogen, 4% carbon dioxide, and 3% oxygen and placed at 37° C. until needed. Using a liquid dispenser, 20 μl of screening medium was dispensed into 384-well, black, clear-bottom plates. With a PinTool, 100 nl of compounds dissolved in DMSO was transferred into the assay plates along with control compound (mefloquine). Next, 30 μl of the parasite suspension in screening medium was then dispensed into the assay plates such that the final parasitemia was 1%, and the final hematocrit was 1.0%. Final concentration of DMSO was 0.125%. Mefloquine at a final concentration of 20 μM and DMSO at a final concentration of 0.125% were used within the assay plates to serve as background and baseline controls, respectively. The assay plates were transferred to incubators (93% nitrogen, 4% carbon dioxide, and 3% oxygen during the 72-h incubation at 37° C.). Ten microliters of detection reagent consisting of 1 OX SYBR Green I (Invitrogen; supplied in 10,000× concentration) in lysis buffer (20 mM Tris-HCl, 5 mM EDTA, 0.16% Saponin wt/vol, 1.6% Triton X vol/vol) was dispensed into the assay plates. For optimal staining, the assay plates were left at room temperature for 24 h in the dark. The assay plates were read by using an Envision (PerkinElmer) reader, with 505 dichroic mirrors with 485-nm excitation and 530-nm emission settings, and the plate reads were from the bottom.

| Compound | EC50 [nM] |
| --- | --- |
| COc1ccc2c3c(n(C)c2c1)[C@H](CO)NCC31CCN(Cc2ccc(-c3ccccn3)cc2)CC1 [Compound 79, (R)-(7′-methoxy-9′-methyl-1-(4-(pyridin-2-yl)benzyl)-1′,2′,3′,9′-tetrahydrospiro [piperidine-4,4′-pyrido[3,4-b]indol]-1′-yl)methanol] | 135 |
| COc1ccc2c3c([nH]c2c1)[C@H](CCO)N(C(C)=O)CC31CCN(C(=O)Nc2ccccc2F)CC1 [Compound 73, (S)-2′-acetyl-N-(2-fluorophenyl)-1′-(2-hydroxyethyl)-7′-methoxy-1′,2′,3′,9′-tetrahydrospiro [piperidine-4,4′-pyrido[3,4-b]indole]-1-carboxamide] | 468 |
| COc1ccc2c3c(n(C)c2c1)[C@H](CO)N(CC1CC1)CC31CN(C(=O)c2ccc3c(c2)OCO3)C1 [Compound 95, (R)-benzo[d] [1,3]dioxol-5-yl(2′-(cyclopropylmethyl)-1′-(hydroxymethyl)-7′-methoxy-9′-methyl-1′,2′,3′,9′-tetrahydrospiro [azetidine-3,4′-pyrido[3,4-b]indol]-1-yl)methanone] | 1260 |
| COc1ccc2c3c(n(C)c2c1)[C@H](CO)N(C(=O)Nc1ccc(F)cc1)CC31CCN(S(=O)(=O)c2cccc(F)c2)CC1 [Compound 114, (R)-N-(4-fluorophenyl)-1-((3-fluorophenyl)sulfonyl)-1′-(hydroxymethyl)-7′-methoxy-9′-methyl-3′,9′-dihydrospiro [piperidine-4,4′-pyrido[3,4-b]indole]-2′(1′H)-carboxamide] | 951 |
| CCC(=O)N1CCC2(CC1)CN(S(=O)(=O)c1ccccc1)[C@@H](CO)c1[nH]c3cc(OC)ccc3c12 [Compound 116, (R)-1-(1′-(hydroxymethyl)-7′-methoxy-2′-(phenylsulfonyl)-1′,2′,3′,9′-tetrahydrospiro [piperidine-4,4′-pyrido[3,4-b]indol]-1-yl) propan-1-one] | 1470 |
| COc1ccc2c3c([nH]c2c1)[C@H](CO)N(C(C)=O)CC31CCN(S(=O)(=O)Cc2ccccc2F)CC1 [Compound 44, (R)-1-(1-((2-fluorobenzyl)sulfonyl)-1′-(hydroxymethyl)-7′-methoxyspiro[piperidine-4,4′-pyrido[3,4-b]indol]-2′(1′H,3′H,9′H)-yl)ethanone] | 1600 to 3280 |
| COc1ccc2c3c([nH]c2c1)[C@H](CO)N(C)CC31CCN(C(=O)Nc2ccccc2F)CC1 [Compound 61, (R)-N-(2-fluorophenyl)-1′-(hydroxymethyl)-7′-methoxy-2′-methyl-1′,2′,3′,9′-tetrahydrospiro[piperidine-4,4′-pyrido[3,4-b]indole]-1-carboxamide] | 3780 to 4120 |
| COc1ccc2c3c([nH]c2c1)C(CO)N(C(=O)Nc1ccc(F)cc1)CC31CCN(Cc2cc(-c3ccccc3)on2)CC1 (stereo in doubt) [Compound 111, (R)-N-(4-fluorophenyl)-1′-(hydroxymethyl)-7′-methoxy-1-((5-phenylisoxazol-3-yl)methyl)-3′,9′-dihydrospiro [piperidine-4,4′-pyrido[3,4-b]indole]-2′(1′H)-carboxamide] | 451 |
| COc1ccc2c3c([nH]c2c1)[C@H](C)N(C(C)=O)CC31CCN(C(=O)OC(C)(C)C)CC1 [Compound 34, (S)-tert-butyl 2′-acetyl-7′-methoxy-1′-methyl-1′,2′,3′,9′-tetrahydrospiro[piperidine-4,4′-pyrido[3,4-b]indole]-1-carboxylate] | 3770 |
| COc1ccc2c3c([nH]c2c1)[C@H](CO)N(CC(F)(F)F)CC31CCN(C(=O)Nc2ccccc2F)CC1 [Compound 62, (R)-N-(2-fluorophenyl)-1′-(hydroxymethyl)-7′-methoxy-2′-(2,2,2-trifluoroethyl)-1′,2′,3′,9′-tetrahydrospiro[piperidine-4,4′-pyrido[3,4-b]indole]-1-carboxamide] | 4490 to 9480 |
| COc1ccc(NC(=O)N2CC3(C2)CN(C(=O)C2CCC2)[C@H](CO)c2c3c3ccc(OC)cc3n2C)cc1 [Compound 126, (S)-2′-(cyclobutanecarbonyl)-1′-(hydroxymethyl)-7′-methoxy-N-(4-methoxyphenyl)-9′-methyl-1′,2′,3′,9′-tetrahydrospiro [azetidine-3,4′-pyrido[3,4-b]indole]-1-carboxamide] | 437 |
| COC[C@H]1c2[nH]c3cc(OC)ccc3c2C2(CCN(C(=O)Nc3ccccc3F)CC2)CN1C(C)=O [Compound 69, (R)-2′-acetyl-N-(2-fluorophenyl)-7′-methoxy-1′-(methoxymethyl)-1′,2′,3′,9′-tetrahydrospiro [piperidine-4,4′-pyrido[3,4-b]indole]-1-carboxamide] | 9050 |
| COc1ccc(S(=O)(=O)N2CCC3(CC2)CN(Cc2ccncc2)[C@H](CO)c2[nH]c4cc(OC)ccc4c23)cc1 [Compound 119, (S)-(7′-methoxy-1-((4-methoxyphenyl)sulfonyl)-2′-(pyridin-4-ylmethyl)-1′,2′,3′,9′-tetrahydrospiro [piperidine-4,4′-pyrido[3,4-b]indol]-1′-yl) methanol] | 1720 |
| CCC(=O)N1CC2(CCN(C(=O)Nc3ccccc3F)CC2)c2c([nH]c3cc(OC)ccc23)[C@H]1CO [Compound 113, (S)-N-(2-fluorophenyl)-1′-(hydroxymethyl)-7′-methoxy-2′-propionyl-1′,2′,3′,9′-tetrahydrospiro [piperidine-4,4′-pyrido[3,4-b]indole]-1-carboxamide] | 1100 |
| COc1ccc2c3c([nH]c2c1)[C@H](CO)N(C(C)=O)CC31CCN(C(=O)Nc2ccccn2)CC1 [Compound 68, (R)-2′-acety1-1′-(hydroxymethyl)-7′-methoxy-N-(pyridin-2-yl)-1′,2′,3′,9′-tetrahydrospiro[piperidine-4,4′-pyrido[3,4-b]indole]-1-carboxamide] | 918 to 2270 |
| COc1ccc2c3c(n(C)c2c1)[C@H](CO)N(Cc1ccc2c(c1)OCO2)CC31CN(C(=O)c2ccc3c(c2)OCO3)C1 [Compound 81, (R)-benzo[d][1,3] dioxol-5-y1(2′-(benzo[d][1,3]dioxol-5-ylmethyl)-1′-(hydroxymethyl)-7′-methoxy-9′-methyl-1′,2′,3′,9′-tetrahydrospiro[azetidine-3,4′-pyrido[3,4-b]indol]-1-yl)methanone] | 130 |
| COc1ccc2c3c([nH]c2c1)[C@H](CC(F)(F)F)N(C(C)=O)CC31CCN(C(=O)Nc2ccccc2F)CC1 [Compound 74, (S)-2′-acetyl-N-(2-fluorophenyl)-7′-methoxy-1′-(2,2,2-trifluoroethyl)-1′,2′,3′,9′-tetrahydrospiro[piperidine-4,4′-pyrido[3,4-b]indole]-1-carboxamide] | 30 to 130 |
| COc1ccc2c3c([nH]c2c1)[C@H](CO)N(C(=O)Nc1ccc(F)cc1)CC31CCN(S(=O)(=O)c2cccc(F)c2)CC1 [Compound 128, (R)-N-(4-fluorophenyl)-1-((3-fluorophenyl)sulfonyl)-1′-(hydroxymethyl)-7′-methoxy-3′,9′-dihydrospiro [piperidine-4,4′-pyrido[3,4-b]indole]-2′(1′H)-carboxamide] | 750 |
| COc1ccc2c3c([nH]c2c1)[C@H](C)N(C(C)=O)CC31CCN(C(=O)Nc2ccccc2F)CC1 [Compound 48, (S)-2-acetyl-N-(2-fluorophenyl)-7′-methoxy-1'-methyl-1′,2′,3′,9′-tetrahydrospiro[piperidine-4,4′-pyrido[3,4-b]indole]-1-carboxamide] | 214 to 236 |
| COc1ccc2c3c([nH]c2c1)[C@H](CO)N(C(C)=O)CC31CCN(c2nc3ccccc3s2)CC1 [Compound 137, (R)-1-(1-(benzo[d]thiazol-2-yl)-1′-(hydroxymethyl)-7′-methoxyspiro [piperidine-4,4′-pyrido[3,4-b]indol]-2′(1′H,3′H,9′H)-yl) ethanone] | 5760 |
| COc1ccc2c3c([nH]c2c1)[C@H](CO)N(S(=O)(=O)C1CC1)CC31CCN(C(=O)Nc2ccccc2F)CC1 [Compound 145, (R)-2′-(cyclopropylsulfonyl)-N-(2-fluorophenyl)-1′-(hydroxymethyl)-7′-methoxy-1′,2′,3′,9′-tetrahydrospiro [piperidine-4,4′-pyrido[3,4-b]indole]-1-carboxamide] | 113 |

same assay, conditions: read-out: EC^50 Dd2

| Compound | EC50 [nM] |
| --- | --- |
| Mixture of (1R,3′R) and (1R,3′S)-tert-butyl 2-acetyl-1-(((tert- butyldimethylsilyl)oxy) methyl)-7-methoxy- 1,2,3,9- tetrahydrospiro [pyrido[3,4-b]indole- 4,3′-pyrrolidine]-1′- carboxylate compound with (1R,3′S)-tert-butyl 2-acetyl-1- (((tert-butyldimethylsilyl) oxy)methyl)-7- methyoxy-1,2,3,9- tetrahydrospiro[pyrido [3,4-b]indole-4,3′- pyrrolidine]-1′- carboxylate (1:1) [Compound 76] | 1470 |
